Measurements published in ChEMBL document CHEMBL1201862, “PubChem BioAssay data set” (2004).
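1) Cells in 96-well plates. 2) Compound, 48 h, 5 concentrations. 3) Linear interpolation between surrounding doses. 4) Unreached endpoint = highest concentration. GI50 = concentration required for 50% inhibition of growth.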 Active and inactive are the calls of the source. Rule as the data show it: active = GI50 up to about 1.1 µM and inactive = higher.

Assays:
Assay in all cases: inhibition of tumour cell growth, NCI panel, 48 h
[1] = tested on: SW-620
[2] = tested on: TK-10
[3] = tested on: A498
[4] = tested on: SNB-75
[5] = tested on: RXF 393
[6] = tested on: UACC-257
[7] = tested on: RPMI-8226
[8] = tested on: NCI-H23
[9] = tested on: HOP-92
[10] = tested on: MDA-MB-231
[11] = tested on: DU-145
[12] = tested on: KM12
[13] = tested on: U-251
[14] = tested on: M14
[15] = tested on: SNB-19
[16] = tested on: COLO 205
[17] = tested on: IGROV-1
[18] = tested on: LOX IMVI
[19] = tested on: A549
[20] = tested on: SF-295
[21] = tested on: Malme-3M
[22] = tested on: SR
[23] = tested on: NCI/ADR-RES
[24] = tested on: Hs-578T
[25] = tested on: SN12C
[26] = tested on: HL-60
[27] = tested on: NCI-H460
[28] = tested on: 786-0
[29] = tested on: OVCAR-8
[30] = tested on: SK-MEL-2
[31] = tested on: SF-268
[32] = tested on: NCI-H522
[33] = tested on: EKVX
[34] = tested on: BT-549
[35] = tested on: MOLT-4
[36] = tested on: CCRF-CEM
[37] = tested on: MCF7
[38] = tested on: MDA-N
[39] = tested on: SK-MEL-5
[40] = tested on: HT-29
[41] = tested on: ACHN
[42] = tested on: SK-MEL-28
[43] = tested on: OVCAR-3
[44] = tested on: HOP-62
[45] = tested on: SK-OV-3
[46] = tested on: PC-3
[47] = tested on: K562
[48] = tested on: CAKI-1
[49] = tested on: T47D
[50] = tested on: NCI-H226
[51] = tested on: MDA-MB-435
[52] = tested on: HCT-116
[53] = tested on: UACC-62
[54] = tested on: OVCAR-4
[55] = tested on: UO-31
[56] = tested on: HCT-15
[57] = tested on: SF-539
[58] = tested on: OVCAR-5

C/C(=N\Nc1cc(CN2CCCC2)c(-c2ccc(Cl)cc2)nn1)C(=O)O
GI50 [1]: > 100 µM (inactive)
GI50 [2]: > 100 µM (inactive)
GI50 [3]: > 100 µM (inactive)
GI50 [4]: > 100 µM (inactive)
GI50 [5]: > 100 µM (inactive)
GI50 [6]: > 100 µM (inactive)
GI50 [7]: > 100 µM (inactive)
GI50 [8]: > 100 µM (inactive)
GI50 [9]: > 100 µM (inactive)
GI50 [10]: > 100 µM (inactive)
GI50 [11]: > 100 µM (inactive)
GI50 [12]: > 100 µM (inactive)
GI50 [13]: > 100 µM (inactive)
GI50 [14]: > 100 µM (inactive)
GI50 [15]: > 100 µM (inactive)
GI50 [16]: > 100 µM (inactive)
GI50 [17]: > 100 µM (inactive)
GI50 [18]: > 100 µM (inactive)
GI50 [19]: > 100 µM (inactive)
GI50 [20]: > 100 µM (inactive)
GI50 [21]: > 100 µM (inactive)
GI50 [22]: > 100 µM (inactive)
GI50 [23]: > 100 µM (inactive)
GI50 [24]: > 100 µM (inactive)
GI50 [25]: > 100 µM (inactive)
GI50 [26]: > 100 µM (inactive)
GI50 [27]: > 100 µM (inactive)
GI50 [28]: > 100 µM (inactive)
GI50 [29]: > 100 µM (inactive)
GI50 [30]: > 100 µM (inactive)
GI50 [31]: > 100 µM (inactive)
GI50 [32]: > 100 µM (inactive)
GI50 [33]: > 100 µM (inactive)
GI50 [34]: > 100 µM (inactive)
GI50 [35]: > 100 µM (inactive)
GI50 [36]: > 100 µM (inactive)
GI50 [37]: > 100 µM (inactive)
GI50 [38]: > 100 µM (inactive)
GI50 [39]: > 100 µM (inactive)
GI50 [40]: > 100 µM (inactive)
GI50 [41]: > 100 µM (inactive)
GI50 [42]: > 100 µM (inactive)
GI50 [43]: 90.2 µM (inactive)
GI50 [44]: > 100 µM (inactive)
GI50 [45]: > 100 µM (inactive)
GI50 [46]: > 100 µM (inactive)
GI50 [47]: > 100 µM (inactive)
GI50 [48]: > 100 µM (inactive)
GI50 [49]: > 100 µM (inactive)
GI50 [50]: > 100 µM (inactive)
GI50 [51]: > 100 µM (inactive)
GI50 [52]: > 100 µM (inactive)
GI50 [53]: > 100 µM (inactive)
GI50 [54]: > 100 µM (inactive)
GI50 [55]: > 100 µM (inactive)
GI50 [56]: > 100 µM
GI50 [57]: > 100 µM (inactive)
GI50 [58]: > 100 µM (inactive)
